Source: US4150049A, “Esters of aromatic sulfonic acids” (The Government of the United States, priority 1977, dated 1979)

Assays:
[1] = target: T1, β-Trypsin (Bos taurus, UniProt P00760); assay: Dixon plot competitive inhibition of hydrolysis of benzyloxy-lysine-nitrophenyl ester by β-trypsin; assay type: biochemical, bovine; conditions: Dixon plots, pH 6.0; Ki (M) x 10^5; read-out: Inhibition constant Ki (M) x 10^5, β-Trypsin
T1 construct: bovine β-trypsin; made in house
T1 sequence (P00760 24-246): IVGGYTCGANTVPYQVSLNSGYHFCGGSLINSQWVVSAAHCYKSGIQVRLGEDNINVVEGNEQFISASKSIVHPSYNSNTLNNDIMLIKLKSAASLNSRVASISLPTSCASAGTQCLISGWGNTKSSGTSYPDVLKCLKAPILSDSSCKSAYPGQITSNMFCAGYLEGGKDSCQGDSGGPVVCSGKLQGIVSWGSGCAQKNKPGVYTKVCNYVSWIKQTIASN
Description: (§1) In accordance with the present invention, nitrophenyl m- and p-amidinophenylmethanesulfonate were prepared, and these compounds were examined for their properties related to inhibition and inactivation of specific enzymes. With regard to the enzymes employed, bovine β-trypsin and thrombin were chromatographically purified by known procedures. Human plasminogen was purified from Cohn fraction III and activated with streptokinase. Human plasma kallikrein was purified about 1000-fold from activated Cohn fraction IV, by affinity chromatography. Human thrombin was prepared by the method of Miller and Copeland. Bovine chymotrypsin three times crystallized was also employed, along with streptokinase.
(§2) Enzyme concentrations were determined by titration with nitrophenyl p-guanidinobenzoate in the case of trypsin, plasmin, and thrombin, whereas chymotrypsin molarity was based on weight. Kallikrein concentration is expressed in enzyme units as measured in a pH-state by esterase action on 0.02 M tos-Arg-OMe in 0.06 M KCl at pH 7.85; one unit corresponds to the hydrolysis of 1 μmole of ester per minute under these conditions.
(§3) Optical density change at 340 nm was measured with double beam operation as described above. […]

[2] = target: T2, Plasma kallikrein (human) (Homo sapiens, UniProt P03952); assay: Dixon plot competitive inhibition of esterase action of human plasma kallikrein; assay type: biochemical; conditions: Dixon plots, pH 6.0; Ki (M) x 10^5; read-out: Inhibition constant Ki (M) x 10^5, Plasma kallikrein (human)
T2 construct: from tissue
Description: as §1, §2, §3

[3] = target: T3, Plasmin (human) (Homo sapiens, UniProt P00747); assay: Dixon plot competitive inhibition of esterase action of human plasmin; assay type: biochemical; conditions: Dixon plots, pH 6.0; Ki (M) x 10^5; read-out: Inhibition constant Ki (M) x 10^5, Plasmin (human)
T3 construct: from tissue; host or cells: Cohn fraction III (human plasma)
Description: as §1, §2, §3

[4] = target: T4, Thrombin (human) (Homo sapiens, UniProt P00734); assay: Dixon plot competitive inhibition of hydrolysis of benzyloxy-lysine-nitrophenyl ester by human thrombin; assay type: biochemical; conditions: Dixon plots, pH 6.0; Ki (M) x 10^5; read-out: Inhibition constant Ki (M) x 10^5, Thrombin (human)
T4 construct: made in house
Description: as §1, §2, §3

[5] = target: T5, α-Chymotrypsin (Bos taurus, UniProt P00766); assay: Dixon plot competitive inhibition of hydrolysis of benzyloxy-lysine-nitrophenyl ester by α-chymotrypsin; assay type: biochemical, bovine; conditions: Dixon plots, pH 6.0; Ki (M) x 10^5; read-out: Inhibition constant Ki (M) x 10^5, α-Chymotrypsin
T5 construct: α-Chymotrypsin
Description: as §1, §2, §3

[6] = target: T6, Thrombin (bovine) (Bos taurus, UniProt P00735); assay: Dixon plot competitive inhibition of hydrolysis of benzyloxy-lysine-nitrophenyl ester by bovine thrombin; assay type: biochemical
T6 construct: made in house
Description: as §1, §2, §3

[7] = target: thrombin (Bos taurus, UniProt P00735); assay: presteady state kinetics of nitrophenol production by thrombin; assay type: biochemical, bovine
Description: as §1
The action of thrombin on nitrophenyl p-amidinophenylmethanesulfonate was also studied in 0.05 M sodium veronal buffer, pH 7.4 (with 0.02 M Ca^2+ + at a series of reagent concentrations to determine the possible formation of an intermediate complex as a step in the inactivation process. The apparatus was the same as above and presteady state nitrophenol production was analyzed for the calculation of k2 and KS. Concentrations of the p-isomer were 0.5, 1.0, 2.0, 2.5, 3.75, and 5.0×10^-4 M. One of the progress curves is shown in FIG. 1, with this graph representing the action of thrombin (3×10^-6 M) on the p-isomer, pH 8.3, 25° C., with stoichiometric nitrophenol release accompanying inactivation. Although the full chromogeneity of nitrophenol is not reached at this pH, the final value in each case was equal to that obtained in control titrations with NPGB.

T2 sequence (P03952 391-638 limits assumed): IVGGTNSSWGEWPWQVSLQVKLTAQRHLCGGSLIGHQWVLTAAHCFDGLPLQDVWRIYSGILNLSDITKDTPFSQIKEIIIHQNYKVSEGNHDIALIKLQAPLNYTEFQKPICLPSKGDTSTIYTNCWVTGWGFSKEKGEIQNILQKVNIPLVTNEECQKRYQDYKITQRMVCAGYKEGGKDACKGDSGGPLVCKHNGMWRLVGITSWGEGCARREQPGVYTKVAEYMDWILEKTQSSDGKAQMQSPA
T2 sequence (P03952 20-390 limits assumed): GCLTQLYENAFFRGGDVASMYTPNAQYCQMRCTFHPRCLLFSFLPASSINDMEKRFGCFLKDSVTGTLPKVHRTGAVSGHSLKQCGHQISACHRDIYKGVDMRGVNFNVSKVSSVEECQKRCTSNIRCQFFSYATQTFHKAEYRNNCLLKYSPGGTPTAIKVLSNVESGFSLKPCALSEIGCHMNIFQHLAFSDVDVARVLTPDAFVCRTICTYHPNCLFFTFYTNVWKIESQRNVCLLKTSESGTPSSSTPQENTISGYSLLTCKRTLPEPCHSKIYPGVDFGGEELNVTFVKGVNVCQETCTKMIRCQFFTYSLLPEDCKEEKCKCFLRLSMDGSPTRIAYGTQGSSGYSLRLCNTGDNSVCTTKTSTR
T3 sequence (P00747 581-810 limits assumed): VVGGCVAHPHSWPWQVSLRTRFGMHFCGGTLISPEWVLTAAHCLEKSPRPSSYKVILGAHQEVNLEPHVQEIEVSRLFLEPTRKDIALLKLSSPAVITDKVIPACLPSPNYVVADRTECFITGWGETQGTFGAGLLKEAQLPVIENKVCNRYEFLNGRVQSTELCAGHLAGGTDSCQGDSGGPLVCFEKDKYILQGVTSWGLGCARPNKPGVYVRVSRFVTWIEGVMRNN
T3 sequence (P00747 97-580 limits assumed): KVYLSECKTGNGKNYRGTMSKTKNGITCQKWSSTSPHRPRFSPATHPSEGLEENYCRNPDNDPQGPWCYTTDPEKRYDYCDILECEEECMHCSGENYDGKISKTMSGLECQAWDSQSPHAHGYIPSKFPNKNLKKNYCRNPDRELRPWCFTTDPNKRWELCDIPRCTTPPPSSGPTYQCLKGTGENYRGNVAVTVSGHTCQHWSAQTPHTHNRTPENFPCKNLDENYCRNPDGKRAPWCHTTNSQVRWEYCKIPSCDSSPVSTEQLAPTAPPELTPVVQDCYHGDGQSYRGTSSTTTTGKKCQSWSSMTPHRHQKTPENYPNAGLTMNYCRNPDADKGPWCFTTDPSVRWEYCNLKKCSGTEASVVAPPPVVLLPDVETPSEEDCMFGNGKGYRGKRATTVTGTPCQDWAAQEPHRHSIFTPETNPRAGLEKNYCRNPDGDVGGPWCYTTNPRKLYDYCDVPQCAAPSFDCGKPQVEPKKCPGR

| Ki [1] | Ki [2] | Ki [3] | Ki [4] | Ki [5] | Ki [6] | Kd [7] | Ki [7] | kinact ([7]; presteady state kinetics, pH 7.4, read-out: rate constant for inactive enzyme formation, k2 (converted)) | SMILES |
| --- | --- | --- | --- | --- | --- | --- | --- | --- | --- |
| 9e-06 M | 1.9e-05 M | 4.2e-05 M | 5.3e-05 M | 1.3e-05 M | 415 µM |  |  |  | N=C(N)c1cccc(CS(=O)(=O)Oc2ccc([N+](=O)[O-])cc2)c1 [m-isomer] |
| 7e-05 M | 4.7e-05 M | 0.0005 M |  | 3.6e-05 M |  | 120 µM | 120 µM | 0.0193 s⁻¹ | N=C(N)c1ccc(CS(=O)(=O)Oc2ccc([N+](=O)[O-])cc2)cc1 [p-isomer] |
